Measured values taken from patent US12161686B2, “Natural preservatives and antimicrobial agents, including compositions thereof” (Unigen, Inc., priority 2015, dated 2024).

Experiments:
Type in all cases: cell-based
[1] = test system: Staphylococcus aureus (ATCC 6538); test: Minimum Inhibitory Concentration Method (MIC/MBC), broth dilution
Description: (§1) Minimum Inhibitory Concentration against bacterial S. aureus, P. aeruginosa, E. coli, and fungi A. brasiliensis and C. albicans were determined for Albizia amara seeds extract and the active marker compound bundmunchiamine C. The Minimum Inhibitory Concentration Method (MIC) is carried out following the general microbiological protocol to measure the lowest level of an antimicrobial agent that can inhibit microbial proliferation in liquid. Test microorganisms are prepared in liquid culture medium for bacteria or on agar for fungi. Suspensions of test microorganisms are standardized by dilution in appropriate broth solution, usually Mueller-Hinton broth. The test substance is prepared by conducting several serial 1:1 dilutions in a 96-well microtiter plate or in small test tubes, through Mueller-Hinton broth or other appropriate medium. All wells or tubes containing diluted test substances are inoculated with test microorganisms, individually, resulting in one additional and final dilution of the product in all test vessels. The microtiter plate or test tubes are incubated for 18-24 hours. After the incubation period, observations are made to determine the minimum concentration (MIC) which is the lowest concentration of test substance in a well where no turbidity (indicative of test microorganism growth) is observed and minimum bactericidal concentration (MBC).
(§2) The Albizia amara seeds extract RN368-31-MIX and budmunchiamine C were tested against five microorganisms required for category 2 including Staphylococcus aureus (ATCC 6538), Escherichia coli (ATCC 8739), Pseudomonas aeruginosa (ATCC 9027), Candida albicans (ATCC 10231), Aspergillus brasiliensis (ATCC 16404).

[2] = test system: Pseudomonas aeruginosa (ATCC 9027); test: as above
Description: as §1, §2

[3] = test system: Escherichia coli (ATCC 8739); test: as above
Description: as §1, §2

[4] = test system: Aspergillus brasiliensis (ATCC 16404); test: Minimum Inhibitory Concentration Method (MIC/MBC), broth dilution; FIC index
Description: (§3) Minimum Inhibitory Concentration against bacterial S. aureus, P. aeruginosa, E. coli, and fungi A. brasiliensis and C. albicans were determined for Albizia amara seeds extract and the active marker compound bundmunchiamine C. The Minimum Inhibitory Concentration Method (MIC) is carried out following the general microbiological protocol to measure the lowest level of an antimicrobial agent that can inhibit microbial proliferation in liquid. Test microorganisms are prepared in liquid culture medium for bacteria or on agar for fungi. Suspensions of test microorganisms are standardized by dilution in appropriate broth solution, usually Mueller-Hinton broth. […]
(§4) In vitro antifungal combinations are commonly evaluated on the basis of the fractional inhibitory concentration (FIC) index, which represents the sum of the FIC of each substance tested. […]
(§5) The fractional inhibitory concentration (FIC) was calculated with the equation: FIC of drug A (FIC A)=MIC of drug A in combination/MIC of drug A alone, and FIC of drug B (FIC B)=MIC of drug B in combination/MIC of drug B alone]. The FIC Index (FICI), calculated as the sum of each FIC (YFIC). The calculated index of 1A:1M and 1A:3M against C. albicans were 0.187 and 0.292. […]

[5] = test system: Candida albicans (ATCC 10231); test: as above
Description: as §3, §4, §5

Streptococcus pyogenes = test: Minimum Inhibitory Concentration Method (MIC/MBC)

## budmunchiamine C
[1]
  MBC Staphylococcus aureus: 31.25 µg/mL
  MIC Staphylococcus aureus: 31.25 µg/mL
[2]
  MBC Pseudomonas aeruginosa: 62.5 µg/mL
  MIC Pseudomonas aeruginosa: 62.5 µg/mL
[3]
  MBC Escherichia coli: 31.25 µg/mL
[3]; neutral condition
  MIC Escherichia coli: 31.25 µg/mL
[4]
  MIC Aspergillus brasiliensis: 125 µg/mL
[5]
  MBC Candida albicans: 125 µg/mL
Streptococcus pyogenes
  MIC Streptococcus pyogenes: < 0.97 µg/mL
